Experimental data reported in patent US9957253B2, “Triaminopyrimidine compounds useful for preventing or treating malaria” (MMV MEDICINES FOR MALARIA VENTURE, priority 2014, dated 2018).
pIC50: −log10 of the molar value. Counter-ions that a name gives are not always drawn. Like-named read-outs stand apart in the source and are kept apart here.

What was measured:
[1] = Pharmacokinetic studies (IVPK/POPK) in male Wistar rats; assay type: in vivo; conditions: Rat; for Oral ‘F’ / ½ life (PO PK): 5 mg/kg Examples 7 and 10, 10 mg/kg Example 13; for clearance / Vd: male, Wistar, IV bolus, 0.5 mg/kg Examples 7 and 10, 2 mg/kg Example 13; for clearance: read-out: CL blood; for Vd: read-out: Vss blood
Experimental: All in vivo studies were approved by the institutional animal ethics committee. Pharmacokinetics following IV bolus (IVPK) or oral administration (POPK) of compounds was determined in male Wistar rats or male Beagle dogs. For IVPK in rats, Example 7 and Example 10 were administered as solutions in 20% DMA, 80% phosphate-buffered saline and Example 13 was administered as a solution in 10% v/v NMP, 20% v/v DMA in saline. For POPK, Example 7 and Example 10 were administered as suspensions in 20% DMA, 80% phosphate buffered saline and Example 13 was administered as a suspension in 0.5% HPMC and 0.1% Tween 80 through an oral gavage. Example 13 was administered to dogs as a solution in 10% Ethanol, 30% PEG 400, 60% saline for IVPK and as a suspension in 0.5% HPMC, and 0.1% Tween 80 for POPK. Doses used for rat and dog PK were 0.5 mg/kg for Examples 7 and 10 or 2 mg/kg for Example 13 (IVPK). Doses of 5 mg/kg for Examples 7 and 10 were used during POPK. Doses of 10 mg/kg were used for Example 13 during POPK studies. Blood samples were collected at 8 to 13 time points (0, 0.0833, 0.25, 0.283, 0.333, 0.417, 0.75, 1.25, 3.25, 6.25, 12.25, 24.25 h for dog IVPK; 0, 0.25, 0.5, 1, 1.5, 2, 3, 4, 8, 12, 24, 32, 48 h for dog POPK; 0.083, 0.25, 0.5, 1, 2, 4, 7, 24 h for rat IVPK; 0.25, 1, 3, 6, 12, 24, 36, 48 h for rat POPK) after dosing. Blood (rat) or plasma (dog) samples were analysed by LC-MS/MS. PK parameters were estimated by non-compartmental analysis in Phoenix®.

[2] = molecular target: CYP3A4 (Homo sapiens, UniProt P08684); assay: CYP inhibition assay, CYP 3A4; assay type: in vitro ADME; conditions: probe midazolam; human liver microsomes, substrate cocktail
Experimental: (§1) This study was conducted using specific substrates for 5 major human CYP isozymes. These substrates were used as a cocktail (phenacetin, diclofenac, S-mephenytoin, bufuralol and midazolam which are predominantly metabolised by CYP 1A2, 2C9, 2C19, 2D6 and 3A4/5, respectively) at concentrations equivalent to their respective Km values. LC-MS-MS (MRM mode) was used to follow the formation of the CYP specific metabolites. A decrease in the formation of the metabolites in peak area to vehicle control was used to calculate the IC50 value. […] Test compound was used at 6 different concentrations ([…]) to estimate IC50.
(§2) The incubation was carried out in 96 deep well plates. Mixture of 180 μL of 20 mg/mL HLM and 90 μL of substrate cocktail solution was added to 15840 μL of phosphate buffer and 179 μL of this mixture was mixed with 1 μL of the test compound, inhibitor cocktail solution or vehicle in each well. The final concentration of DMSO:ACN in the assay mix was 0.3:0.7% v/v. The incubation plate was placed into the water bath and pre-warmed at 37° C. for 5 min before the reactions were started by the addition of 20 μL of 10 mmol/L NADPH solution in phosphate buffer. After the addition of NADPH, the incubation plate was incubated at 37° C. for a further 5 min. The reaction was quenched by the addition of 1 volume (200 μL) of cold ACN containing 3% formic acid and 40 nmol/L verapamil. The plates were kept on ice for 20 min and then centrifuged at 4000 rpm for 30 min to precipitate protein. The supernatant 180 μL was transferred to the analysis plate for LC/MS/MS analysis.

[3] = Prediction of hepatic blood clearance (well stirred model), dog
[4] = molecular target: human CYP 2C9 (Homo sapiens, UniProt P11712); assay: CYP inhibition assay, CYP 2C9; assay type: in vitro ADME
Experimental: as §1, §2

[5] = Caco-2 permeability assay; assay type: in vitro ADME; conditions: human; Caco-2, 10 μM, pH 6.5/7.4
Experimental: Caco-2 Permeability Assay
Permeability in a Caco-2 monolayer was determined at 10 μM. The Caco-2 cell monolayers were washed once with HBSS. TEER was measured both before and after performing all the transport experiments. Papp was measured in apical A to basolateral B direction. Transport buffer, 800 μL (HBSS, pH 7.4) was first dispensed to the basal side of the monolayer. The assay was then initiated by adding 200 μL of compound solution to the apical side (all test compounds were diluted in HBSS, pH 6.5, with 1% DMSO as co-solvent). Two μL and 200 μL of samples were withdrawn, before and at 45 and 120 min post addition of test compound, from the apical donor compartment and the basolateral receiver compartment, respectively. The transwell plates were incubated at 37° C. on a shaker at 480 rpm inside the incubator. All samples were immediately analysed by LC-MS/MS. A passive permeability was determined by complete chemical inhibition of the three major efflux transporters, ABCB1 (P-gp), ABCG2 (BCRP) and ABCC2 (MRP2), in Caco-2 cells using a cocktail of chemical inhibitors: quinidine (P-gp), sulfasalazine (BCRP) and benzbromarone (MRP2).
The apparent permeability coefficient (Papp) was calculated according to the following equation: Papp=(ΔQ/Δt)/(A×CD)[cm/s] (1) where (ΔQ/Δt) […] is the cumulative amount of test compound transported over time to the basolateral (receiver) side, A is the surface area of the monolayer membrane (cm^2) and CD is the average drug concentration in the donor chamber over the period for which (ΔQ/Δt) was determined.

[6] = Plasma protein binding assay (equilibrium dialysis), dog; assay type: in vitro ADME
Experimental: Plasma Protein Binding Assay
Protein binding is measured using the equilibrium dialysis technique. Compound is added to 10% plasma giving a concentration of 20 μM and dialysed with isotonic buffer for 18 hours at 37° C. The plasma and buffer solutions are analysed using generic LCUVMS and the first apparent binding constant for the compound derived. The binding constant is then used to determine the % free in 100% plasma.

[7] = molecular target: T1, human CYP 2C19 (Homo sapiens, UniProt P33261); assay: Time dependent CYP inhibition assay, CYP 2C19; assay type: in vitro ADME
T1 construct: Mixture of 180 μL of 20 mg/mL HLM and 90 μL of substrate cocktail solution; from tissue; host or cells: human liver microsomes (HLM)

[8] = test system: hepatocytes; assay: Metabolic stability assay (hepatocyte Clint), dog; assay type: in vitro ADME; conditions: 1 μM compound
[9] = human liver microsomes, substrate cocktail, read-out: IC50 CYP 2C9

human CYP 2C9, sequence (P11712 whole entry): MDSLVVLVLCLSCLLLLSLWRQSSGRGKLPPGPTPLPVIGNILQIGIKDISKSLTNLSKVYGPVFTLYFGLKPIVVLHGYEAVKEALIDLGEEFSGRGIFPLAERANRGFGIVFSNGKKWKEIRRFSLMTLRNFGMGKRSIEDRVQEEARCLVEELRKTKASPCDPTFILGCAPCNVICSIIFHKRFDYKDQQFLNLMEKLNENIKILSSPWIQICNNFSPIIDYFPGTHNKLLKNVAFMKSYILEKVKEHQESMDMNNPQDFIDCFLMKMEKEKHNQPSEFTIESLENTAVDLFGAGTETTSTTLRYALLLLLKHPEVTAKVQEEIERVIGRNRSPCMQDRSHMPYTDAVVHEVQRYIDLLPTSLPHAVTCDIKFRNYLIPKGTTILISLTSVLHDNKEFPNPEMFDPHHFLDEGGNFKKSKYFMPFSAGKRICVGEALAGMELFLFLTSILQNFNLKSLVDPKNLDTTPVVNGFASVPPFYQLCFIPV
CYP3A4, sequence (P08684 2-503): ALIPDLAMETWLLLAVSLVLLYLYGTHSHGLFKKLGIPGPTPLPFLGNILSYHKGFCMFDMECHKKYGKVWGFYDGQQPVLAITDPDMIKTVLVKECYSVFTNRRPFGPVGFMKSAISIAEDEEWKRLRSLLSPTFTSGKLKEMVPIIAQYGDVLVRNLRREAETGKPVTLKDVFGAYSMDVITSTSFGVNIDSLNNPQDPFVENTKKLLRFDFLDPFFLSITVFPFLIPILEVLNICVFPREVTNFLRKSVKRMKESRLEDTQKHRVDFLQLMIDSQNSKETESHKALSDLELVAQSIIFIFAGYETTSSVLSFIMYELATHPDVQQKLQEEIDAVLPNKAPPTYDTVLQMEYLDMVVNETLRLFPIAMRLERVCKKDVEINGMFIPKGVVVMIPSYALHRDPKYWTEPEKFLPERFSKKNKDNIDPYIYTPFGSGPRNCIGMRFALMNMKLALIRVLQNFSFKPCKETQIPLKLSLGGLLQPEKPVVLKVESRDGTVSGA
T1 sequence (P33261 whole entry): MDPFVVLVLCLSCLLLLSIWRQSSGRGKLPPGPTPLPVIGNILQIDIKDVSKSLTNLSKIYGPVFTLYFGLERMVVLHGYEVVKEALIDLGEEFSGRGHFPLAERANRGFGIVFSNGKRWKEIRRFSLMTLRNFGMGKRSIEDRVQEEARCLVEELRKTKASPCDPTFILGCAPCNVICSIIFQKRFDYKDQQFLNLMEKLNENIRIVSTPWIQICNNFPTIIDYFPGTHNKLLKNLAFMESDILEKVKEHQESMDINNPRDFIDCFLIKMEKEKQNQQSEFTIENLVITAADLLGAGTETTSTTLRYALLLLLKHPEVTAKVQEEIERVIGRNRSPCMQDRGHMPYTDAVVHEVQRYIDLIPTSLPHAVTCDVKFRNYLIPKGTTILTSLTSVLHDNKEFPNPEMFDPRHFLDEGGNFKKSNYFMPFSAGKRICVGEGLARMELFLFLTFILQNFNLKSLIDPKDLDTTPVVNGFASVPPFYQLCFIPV

Row | SMILES | Oral ‘F’ [1] [%] | ½ life (PO PK) [1] [h] | clearance ([1]; blood) [mL/min/kg] | Vd ([1]; blood) [L/kg] | IC50 at 5 min [2] [µM] | Predicted CLh blood [3] [mL/min/kg] | pIC50 [4, 9] | Papp A→B at 120 min, 10 μM [5] [×10⁻⁶ cm/s] | Fup [6] | pIC50 [7] | Hep. Clint [8] [μl/min/1E6] | clearance ([1]; in vivo) [mL/min/kg] | Vd ([1]; in vivo) [L/kg] | pIC50 [4]
1 | Cc1nc(Nc2ncc(N3CCN(C)[C@H](C)C3)c(Nc3cc(C)n(C)n3)n2)cc(C2CC2)c1F [Example 13, (R)—N2-(4-cyclopropyl-5-fluoro-6-methylpyridin-2-yl)-N4-(1,5-dimethyl-1H-pyrazol-3-yl)-5-(3,4-dimethylpiperazin-1-yl)pyrimidine-2,4-diamine] | 80 | 10 | 9.8 | 7.9 | > 30 | 20.80 | < 4.52 | 19.5 | 0.04 | < 4.25 | 9.3 | – | – | –
2 | Cc1nc(Nc2ncc(N3CCN[C@H](C)C3)c(Nc3cnn(C)n3)n2)cc(C2CC2)c1Cl [Example 10, (R)—N2-(5-chloro-4-cyclopropyl-6-methylpyridin-2-yl)-N4-(2-methyl-2H-1,2,3-triazol-4-yl)-5-(3-methylpiperazin-1-yl)pyrimidine-2,4-diamine dihydochloride] | 17 | 30 | 22.5 | 9.7 | > 30 | 12.70 | < 4.52 | 3.8 | 0.04 | < 4.25 | 5.1 | – | – | –
3 | CCc1cc(Nc2ncc(N3CCN[C@H](C)C3)c(Nc3cc(C)n(C)n3)n2)nc(C)c1F [Example 7, (R)—N4-(1,5-dimethyl-1H-pyrazol-3-yl)-N2-(4-ethyl-5-fluoro-6-methylpyridin-2-yl)-5-(3-methylpiperazin-1-yl)pyrimidine-2,4-diamine dihydrochloride] | 31 | 10 | – | – | > 30 | – | – | 5 | – | < 4.25 | – | 26.6 | 12 | < 4.52
